Laboratory results: patent US12122778B2, “Activating pyruvate kinase R” (Novo Nordisk Health Care AG, priority 2018, dated 2024)

Columns and labels:
PKR(R510Q) = PKR(R510Q) (Homo sapiens, UniProt P30613, R510Q); assay: Luminescence Biochemical Assay (Kinase Glo Plus), PKR R510Q mutant; conditions: without FBP; for activation at 1.54 µM: 1.54 μM compound, read-out: AC50 LUM KGP woFBP % Fold@1.54 μM mean; for AC50: read-out: AC50 LUM KGP woFBP AC50 μM gmean; for Emax: read-out: AC50 LUM KGP woFBP MAX % FOLD mean
Experimental: (§1) In some embodiments, a PKR Activating Compound can have: (1) an AC50 value of less than 0.1 μM (e.g., compounds with AC50 values of “+++” in Table 13), 0.1-1.0 μM (e.g., compounds with AC50 values of “++” in Table 13), or 1.01-40 μM (e.g., compounds with AC50 values of “+” in Table 13); (2) a MAX % Fold of 75%-250%, 250-500%, or 75%-500%; and/or (3) a % Fold@1.54 μM of 75%-250%, 250-500%, or 75%-500%. In some embodiments, a PKR Activating Compound has (1) an AC50 value of less than 1.0 μM; (2) a MAX % Fold of 75%-500%; and/or (3) a % Fold@1.54 μM of 75%-500%.
(§2) The phosphorylation of Adenosine-5′-diphosphate (ADP) by various mutants of PKR was determined by the Kinase Glo Plus Assay (Promega) in the presence or absence of FBP [D-Fructose-1,6-diphosphate; BOC Sciences, CAS: 81028-91-3] as follows. Unless otherwise indicated, all reagents were purchased from Sigma-Aldrich. All reagents were prepared in buffer containing 50 mM Tris-HCl, 100 mM KCl, 5 mM MgCl2, and 0.01% Triton X100, 0.03% BSA, and 1 mM DTT. Enzyme and PEP [Phospho(enol) pyruvic acid] were added at 2× to all wells of an assay-ready plate containing serial dilutions of test compounds or DMSO vehicle. Final enzyme concentrations for PKR(wt), PKR(R510Q), and PKR(G332S) were 0.8 nM, 0.8 nM, and 10 nM respectively. Final PEP concentration was 100 μM. The Enzyme/PEP mixture was incubated with compounds for 30 minutes at RT before the assay was initiated with the addition of 2×ADP [Adenosine-5′-diphosphate] and KinaseGloPlus. Final concentration of ADP was 100 μM. […] For assays containing FBP, that reagent is added at 30 μM upon reaction initiation. Reactions were allowed to progress for 45 minutes at RT until luminescence was recorded by the BMG PHERAstar FS Multilabel Reader. All compounds were tested in triplicate at concentrations ranging from 42.5 μM to 2.2 nM in 0.83% DMSO.
(§3) Luminescence values were converted to % Fold increase by normalizing to the average of the DMSO control and multiplying by 100. Max, min, slope and AC50 were determined by the standard four parameter fit algorithm of ActivityBase XE Runner. Compounds were evaluated with three parameters—AC50, MAX % Fold, and % Fold@1.54 μM (FIG. 1). The AC50 value for a compound is the concentration (μM) corresponding to the midway between the maximum and minimum values of the four parameter logistic curve fit (i.e., at which the % fold increase along the four parameter logistic curve fit is halfway between MAX % Fold and MIN % Fold (% Fold Midpoint)), MAX % Fold is the highest fold increase observed at any concentration of compound, and % Fold@1.54 μM is the fold increase at a compound concentration of 1.54 μM. The parameter % Fold@1.54 μM was selected to capture elements of both the AC50 and MAX % Fold and to provide a ranking based on both potency and effect. The compound concentration of 1.54 μM was chosen as one that can optimally differentiate the set of compounds based on the range of activities observed.
(§4) As set forth in Table 13 below, AC50 values (columns A, D, G) are defined as follows: ≤0.1 μM (+++); >0.1 μM and ≤1.0 μM (++); >1.0 μM and ≤40 μM (+); >40 μM (0). Max % FOLD values (columns B, E, H) are defined as follows: ≤75% (+); >75% and ≤250% (++); >250% and ≤500% (+++). % Fold@1.54 μM values (columns C, F, J) are defined as follows: ≤75% (+); >75% and ≤250% (++); >250% and ≤50000 (+++).

PKR(wt) = PKR(wt) (Homo sapiens, UniProt P30613); assay: Luminescence Biochemical Assay (Kinase Glo Plus), wild type PKR; conditions: without FBP; for activation at 1.54 µM: 1.54 μM compound, read-out: AC50 LUM KGP woFBP % Fold@1.54 μM mean; for AC50: read-out: AC50 LUM KGP woFBP AC50 μM gmean; for Emax: read-out: AC50 LUM KGP woFBP MAX % FOLD mean
Experimental: as §1, §2, §3, §4

Sequence of PKR(R510Q) (P30613 whole entry R510Q): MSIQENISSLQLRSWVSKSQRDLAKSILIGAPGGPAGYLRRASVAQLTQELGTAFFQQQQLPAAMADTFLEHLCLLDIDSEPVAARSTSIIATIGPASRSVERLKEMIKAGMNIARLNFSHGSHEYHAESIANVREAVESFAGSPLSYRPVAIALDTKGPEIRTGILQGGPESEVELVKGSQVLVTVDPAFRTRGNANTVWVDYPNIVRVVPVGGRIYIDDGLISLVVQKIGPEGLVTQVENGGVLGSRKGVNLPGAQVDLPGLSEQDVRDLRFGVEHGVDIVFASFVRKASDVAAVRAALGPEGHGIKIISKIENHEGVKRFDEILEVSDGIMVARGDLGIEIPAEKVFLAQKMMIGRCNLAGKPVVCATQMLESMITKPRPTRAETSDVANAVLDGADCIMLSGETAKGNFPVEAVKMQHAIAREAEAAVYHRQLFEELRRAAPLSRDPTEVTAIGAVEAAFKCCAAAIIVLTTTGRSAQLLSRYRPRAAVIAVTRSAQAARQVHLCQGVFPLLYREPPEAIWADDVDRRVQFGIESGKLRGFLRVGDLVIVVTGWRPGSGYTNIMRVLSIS
Sequence of PKR(wt) (P30613 whole entry): as the sequence (P30613 whole entry R510Q) above, with Q510R counted along it

activation at 1.54 µM (PKR(R510Q))	AC50 (PKR(R510Q))	Emax (PKR(R510Q))	activation at 1.54 µM (PKR(wt))	AC50 (PKR(wt))	Emax (PKR(wt))	SMILES
250 to 50000%	0.1 to 1 µM	250 to 500%	250 to 50000%	0.1 to 1 µM	250 to 500%	Cc1cc(CNC(=O)N2CC3=C(C2)CN(S(=O)(=O)c2ccc(OC(F)F)cc2)C3)no1 [Example 21-5, 5-[4-(Difluoromethoxy)benzenesulfonyl]-N-[(5-methyl-1,2-oxazol-3-yl)methyl]-1H,2H,3H,4H,5H,6H-pyrrolo[3,4-c]pyrrole-2-carboxamide]
250 to 50000%	0.1 to 1 µM	250 to 500%	250 to 50000%	0.1 to 1 µM	250 to 500%	Cc1cc(CNC(=O)N2CC3=C(C2)CN(S(=O)(=O)c2ccc(OC(F)F)cc2)C3)on1 [Example 21-6, 5-[4-(Difluoromethoxy)benzenesulfonyl]-N-[(3-methyl-1,2-oxazol-5-yl)methyl]-1H,2H,3H,4H,5H,6H-pyrrolo[3,4-c]pyrrole-2-carboxamide]
75 to 250%	0.1 to 1 µM	250 to 500%	75 to 250%	0.1 to 1 µM	250 to 500%	Cc1cc(CNC(=O)N2CC3=C(C2)CN(S(=O)(=O)c2ccc4ncsc4c2)C3)on1 [Example 21-9, 5-(1,3-Benzothiazole-6-sulfonyl)-N-[(3-methyl-1,2-oxazol-5-yl)methyl]-1H,2H,3H,4H,5H,6H-pyrrolo[3,4-c]pyrrole-2-carboxamide]
75 to 250%	1 to 40 µM	75 to 250%	75 to 250%	0.1 to 1 µM	75 to 250%	CC(C)Oc1cccc(CNC(=O)N2CC3=C(C2)CN(S(=O)(=O)c2ccc4ncsc4c2)C3)c1 [Example 21-21, 5-(1,3-Benzothiazole-6-sulfonyl)-N-{[3-(propan-2-yloxy)phenyl]methyl}-1H,2H,3H,4H,5H,6H-pyrrolo[3,4-c]pyrrole-2-carboxamide]
75 to 250%	1 to 40 µM	75 to 250%	75 to 250%	0.1 to 1 µM	75 to 250%	O=C(NCc1ccno1)N1CC2=C(C1)CN(S(=O)(=O)c1ccc3ncsc3c1)C2 [Example 21-27, 5-(1,3-Benzothiazole-6-sulfonyl)-N-(1,2-oxazol-5-ylmethyl)-1H,2H,3H,4H,5H,6H-pyrrolo[3,4-c]pyrrole-2-carboxamide]
75 to 250%	0.1 to 1 µM	75 to 250%	75 to 250%	0.1 to 1 µM	250 to 500%	O=C(NCc1nccs1)N1CC2=C(C1)CN(S(=O)(=O)c1ccc3ncsc3c1)C2 [Example 21-28, 5-(1,3-Benzothiazole-6-sulfonyl)-N-(1,3-thiazol-2-ylmethyl)-1H,2H,3H,4H,5H,6H-pyrrolo[3,4-c]pyrrole-2-carboxamide]
75 to 250%	0.1 to 1 µM	75 to 250%	250 to 50000%	0.1 to 1 µM	250 to 500%	O=C(NCc1ncco1)N1CC2=C(C1)CN(S(=O)(=O)c1ccc3ncsc3c1)C2 [Example 21-29, 5-(1,3-Benzothiazole-6-sulfonyl)-N-(1,3-oxazol-2-ylmethyl)-1H,2H,3H,4H,5H,6H-pyrrolo[3,4-c]pyrrole-2-carboxamide]
75 to 250%	1 to 40 µM	250 to 500%	250 to 50000%	0.1 to 1 µM	250 to 500%	O=C(NCc1cnccn1)N1CC2=C(C1)CN(S(=O)(=O)c1ccc3ncsc3c1)C2 [Example 21-30, 5-(1,3-Benzothiazole-6-sulfonyl)-N-(pyrazin-2-ylmethyl)-1H,2H,3H,4H,5H,6H-pyrrolo[3,4-c]pyrrole-2-carboxamide]

The remaining lines, values behind:

SMILES	activation at 1.54 µM (PKR(R510Q))	AC50 (PKR(R510Q))	Emax (PKR(R510Q))	activation at 1.54 µM (PKR(wt))	AC50 (PKR(wt))	Emax (PKR(wt))
Cc1ccc(F)c(S(=O)(=O)N2CC3=C(CN(C(=O)[C@H](O)c4ccccc4)C3)C2)c1 [Example 18-16, (2R)-1-[5-(2-fluoro-5-methylbenzenesulfonyl)-1H,2H,3H,4H,5H,6H-pyrrolo[3,4-c]pyrrol-2-yl]-2-hydroxy-2-phenylethan-1-one]	250 to 50000%	≤ 0.1 µM	250 to 500%	75 to 250%	≤ 0.1 µM	75 to 250%
COc1ccc(S(=O)(=O)N2CC3=C(CN(C(=O)[C@H](O)c4ccccc4)C3)C2)cc1F [Example 18-17, (2R)-1-[5-(3-fluoro-4-methoxybenzenesulfonyl)-1H,2H,3H,4H,5H,6H-pyrrolo[3,4-c]pyrrol-2-yl]-2-hydroxy-2-phenylethan-1-one]	250 to 50000%	≤ 0.1 µM	250 to 500%	75 to 250%	≤ 0.1 µM	75 to 250%
O=C([C@H](O)c1ccccc1)N1CC2=C(C1)CN(S(=O)(=O)c1ccc(F)cc1F)C2 [Example 18-18, (2R)-1-[5-(2,4-difluorobenzenesulfonyl)-1H,2H,3H,4H,5H,6H-pyrrolo[3,4-c]pyrrol-2-yl]-2-hydroxy-2-phenylethan-1-one]	250 to 50000%	0.1 to 1 µM	250 to 500%	75 to 250%	≤ 0.1 µM	75 to 250%
O=C(C1OCCc2ccccc21)N1CC2=C(C1)CN(S(=O)(=O)c1ccc(OC(F)F)cc1)C2 (stereo not drawn) [Example 18-33, 2-[4-(Difluoromethoxy)benzenesulfonyl]-5-(3,4-dihydro-1H-2-benzopyran-1-carbonyl)-1H,2H,3H,4H,5H,6H-pyrrolo[3,4-c]pyrrole]	75 to 250%	1 to 40 µM	250 to 500%	75 to 250%	1 to 40 µM	250 to 500%
N#Cc1ccc(S(=O)(=O)N2CC3=C(CN(C(=O)[C@H](O)c4ccccc4)C3)C2)cc1 [Example 18-45, 4-({5-[(2R)-2-hydroxy-2-phenylacetyl]-1H,2H,3H,4H,5H,6H-pyrrolo[3,4-c]pyrrol-2-yl}sulfonyl)benzonitrile]	75 to 250%	0.1 to 1 µM	250 to 500%	75 to 250%	0.1 to 1 µM	75 to 250%
O=C([C@H](O)c1ccccc1)N1CC2=C(C1)CN(S(=O)(=O)c1cccc(C(F)(F)F)c1)C2 [Example 18-49, (2R)-2-hydroxy-2-phenyl-1-{5-[3-(trifluoromethyl)benzenesulfonyl]-1H,2H,3H,4H,5H,6H-pyrrolo[3,4-c]pyrrol-2-yl}ethan-1-one]	75 to 250%	0.1 to 1 µM	75 to 250%	75 to 250%	0.1 to 1 µM	75 to 250%
O=C([C@H](O)c1ccccc1)N1CC2=C(C1)CN(S(=O)(=O)c1cccc(F)c1)C2 [Example 18-50, (2R)-1-[5-(3-fluorobenzenesulfonyl)-1H,2H,3H,4H,5H,6H-pyrrolo[3,4-c]pyrrol-2-yl]-2-hydroxy-2-phenylethan-1-one]	75 to 250%	0.1 to 1 µM	250 to 500%	75 to 250%	0.1 to 1 µM	75 to 250%
O=C([C@H](O)c1ccccc1)N1CC2=C(C1)CN(S(=O)(=O)c1ccc(Cl)s1)C2 [Example 18-55, (2R)-1-{5-[(5-chlorothiophen-2-yl)sulfonyl]-1H,2H,3H,4H,5H,6H-pyrrolo[3,4-c]pyrrol-2-yl}-2-hydroxy-2-phenylethan-1-one]	75 to 250%	0.1 to 1 µM	250 to 500%	75 to 250%	0.1 to 1 µM	75 to 250%
